Source: patent US10371695B2, “Identifying compounds modifying a cellular phenotype” (2cureX ApS, priority 2014, dated 2019)

Assays:
[1] = system: micro-tumors (spheroids) from patient tumor tissue; assay: Chemo-sensitivity screening of compounds distributed in Matrigel on patient micro-tumors (growth by imaged area); type: cell-based, human; settings: for cancer cell proliferation (spheroid/micro-tumour growth) inhibition: increasing concentrations, inhibited = spheroid grown to less than 1.5x original size after 7 days at least at highest concentrations tested
Experimental: Materials and Solutions: • Support: Matrigel® available from BD Biosciences. • Arrays: Micro slide format arrays with 96 individual wells surrounded by a common reservoir.
Compounds, Matrigel® and arrays are kept at 5° C. (cooling device) throughout the process when not in the freezer. • 1. Compounds were diluted in Matrigel® (Fluid) as single compounds and/or in combinations equal to standard treatment regimens of patients with colorectal cancer. • 2. Matrigel® with compounds were added to individual wells of the arrays (Fluid) • 3. Arrays were centrifuged 10 min at 3000 RPM (cold) • 4. Arrays were stored at −18° C. (Solid)—ready for use
(§1) Materials and Solutions: • Array prepared as described in Example 1 • STEM media: DMEM/F12 w. 15% Hepes (Gibco 11330-032), StemPro hESC SFM growth supplement (50×):1× • BSA 25%, Gibco A10008-01: 1.8%, FGF-basic (10 ug/ml): 8 ng/ml, 2-Mercaptoethanol Gibco 21985 (55 mM): 0.1 mM, Penicillin/streptomycin 200 U/ml/200 ug/ml (=2× usual conc.), Gentamycin Sigma G1272: 1:100 (=2× usual conc.), Amphotericin (fungicide): 1:100 (=1× usual conc.), Hepes 15 mM • Cooling device for keeping 5° C. • Incubator, 37° C. (CO2, 99% humidity for cell culture)
Procedure: • 1. Tumor tissue from patient was prepared to form a population of small individual micro-tumors (spheroids) • 2. Micro-tumors were suspended in cold STEM media • 3. The array was taken directly from freezer and placed on the cooling device (solid) • 4. 3 ml micro tumor suspension was added to the reservoir of the array and the array was left for 7 min. to allow cells to distribute and settle into individual wells of the array • 5. STEM media was gently removed from reservoir—leaving the micro tumors in the wells • 6. The array was moved to refrigerator (5° C.) and left for 30 min to allow Matrigel® to liquefy and the cells to settle at the bottom of the array (fluid) • 7. Hereafter the array was incubated at 37° C. for 1 hr. to allow the Matrigel® to solidify and entrap the cells in a certain position (solid) • 8. The array with micro-tumors positioned at the bottom was imaged at an automated microscope • 9. Images were acquired every day for 10 days and micro-tumor growth (and inhibition of growth) was measured by quantifying the area of the micro-tumors.
In general cancer cell proliferation as evidenced by spheroid (micro-tumour) growth was considered inhibited if the spheroid had grown to less than 1.5× the original size after 7 days of incubation at least at the highest concentrations tested.

[2] = system: micro-tumors (spheroids) from patient tumor tissue; assay: Screening of compounds imbedded in thermo sensitive nano-particles distributed in Matrigel on patient micro-tumors; type: cell-based, human; settings: FIG. 4; images at day 0, 3, 5 and 7; compound released from nano-particles at 42° C.
Experimental: Materials and Solutions: • Nano-particles containing chemo therapeutic compounds • Support: Matrigel® available from BD Biosciences, • Arrays: Micro slide format array with 96 individual wells surrounded by a common reservoir as described in Example 1 • Cooling device for keeping 5° C.
Nano-particles, Matrigel® and arrays were kept at 5° C. (cooling block) throughout the process when not in the freezer. • 1. Compound containing nano-particles were diluted in Matrigel® (fluid). • 2. Matrigel containing the nano-particles (from above point 1) were added to individual wells of the array • 3. The arrays were centrifuged 10 min at 3000 RPM (cold) • 4. The arrays were stored at −18° C. for 24 hrs. (solid)
as §1, with “prepared accordingly to” for “prepared as described in”, “Example 2” for “Example 1”, “•” for “• Cooling device for keeping 5° C. •”, “C. […]” for “C. (CO2, 99% humidity for cell culture)”
Procedure: • 1. […] Images were acquired every day for 10 days and micro-tumor growth (and inhibition of growth) was measured by quantifying the area of the micro-tumors.

SMILES	cancer cell proliferation (spheroid/micro-tumour growth) inhibition ([1]; patient 1, FIG. 2a)	cancer cell proliferation (spheroid/micro-tumour growth) inhibition ([1]; patient 2, FIG. 2a)	time trace of micro-tumour (spheroid) growth, cancer cell proliferation ([1]; FIG. 3, presence or absence of compound)	micro-tumour growth, proliferation of cancer cells [2]
O=c1[nH]cc(F)c(=O)[nH]1 [5FU]	inhibited	inhibited	–	–
CCc1c2c(nc3ccc(OC(=O)N4CCC(N5CCCCC5)CC4)cc13)-c1cc3c(c(=O)n1C2)COC(=O)[C@]3(O)CC [Irinotecan]	–	–	clearly inhibited cancer cell proliferation	inhibits proliferation
O=C1[O][Pt]2([NH][C@@H]3CCCC[C@H]3[NH]2)[O]C1=O [Oxaliplatin]	–	inhibited	–	–
CCc1c2c(nc3ccc(O)cc13)-c1cc3c(c(=O)n1C2)COC(=O)[C@]3(O)CC [SN38]	inhibited	inhibited	–	–
